Test results taken from patent US20120053122A1, “METHOD FOR THE PROPHYLAXIS OR TREATMENT OF FLUSHING” (priority 2009, published 2012).
Square brackets hold non-standard residues; d marks the D form. Peptide text beside a SMILES is read from it. dPhe(4-Cl) = N[C@H](Cc1ccc(Cl)cc1)C(=O)O; d2Nal = N[C@H](Cc1ccc2ccccc2c1)C(=O)O; dCit = NC(=O)NCCC[C@@H](N)C(=O)O; d3Pal = N[C@H](Cc1cccnc1)C(=O)O

Legend:
Type in all cases: in vivo, women
[1] = test system: PMP flushing; test: Short-term in-hospital response: flush diary (frequency, duration, severity, sweating)
Experimental: Three women who were referred for treatment of severe PMP flushing were included in the pilot study, after signing an informed consent. All three had frequent and severe flushing, during daytime as well as during the night. Sleep was often disturbed by flushes and sweat attacks, often forcing a change of clothes and/or bed linen. Physical examination in these patients was unremarkable and other causes of flushing were excluded. Thyroid function was normal, 24 hour urinary hydroxy-indol-acetic acid and catecholamines were within the reference range, serum tryptase was normal, and none used any medication known to induce flushing.
(§1) To avoid intermittent and variable interference of external factors as much as possible, and to guarantee a constant ambient temperature all subjects were hospitalized for further study. They remained ambulatory during that period. They were instructed to record the following flush characteristics in a diary: time of onset, duration in minutes, flush severity on a scale of 0-10, and the degree of associated sweat attacks: 0=no sweating; 1=mild sweating, i.e. only moist skin, no visible sweat drops; 2=moderate sweating, i.e. visible sweat drops; 3=severe sweating, i.e. totally wet, change of clothes necessary. Blood samples for measurement of serum LH, FSH, estradiol, SHBG and albumin were taken each day at 08.00 h and 20.00 h.

[2] = test system: PMP flushing; test: Long-term treatment, outpatient setting: flush recording
Description: To avoid intermittent and variable interference of external factors as much as possible, and to guarantee a constant ambient temperature all subjects were hospitalized for further study. They remained ambulatory during that period. They were instructed to record the following flush characteristics in a diary: time of onset, duration in minutes, flush severity on a scale of 0-10, and the degree of associated sweat attacks: 0=no sweating; 1=mild sweating, i.e. only moist skin, no visible sweat drops; 2=moderate sweating, i.e. visible sweat drops; 3=severe sweating, i.e. totally wet, change of clothes necessary. Blood samples for measurement of serum LH, FSH, estradiol, SHBG and albumin were taken each day at 08.00 h and 20.00 h. To evaluate whether responsiveness was maintained in the long run, Cetrorelix treatment was studied for a prolonged period in an outpatient setting. Cetrorelix was started after a baseline observation period of 3-6 days. In the first two patients the starting dose was of 250 μg once a day, injected at about 8.30-9.00 h, just after the morning blood sampling. In the third patient the starting dose was 500 μg once a day. Blood was sampled only in the morning, between 8.00 en 9.00 h, every day during the first 4 days, thereafter every 3 days for a brief period, and later on once a week.

[3] = test system: serum LH and FSH; test: Long-term treatment, outpatient setting: serum LH and FSH
Experimental: LH, FSH and estradiol were measured by electrochemiluminescene immunoassays (Roche Diagnostics, Mannheim, Germany). Normal ranges in PMP women: LH>10 U/L, FSH>30 U/L, estradiol<100 nmol/L. SHBG was measured by chemilumiescent enzyme immunoassay (DPC, Los Angeles, Calif., USA, normal range in PMP women: 18-144 nmol/L)). To evaluate whether responsiveness was maintained in the long run, Cetrorelix treatment was studied for a prolonged period in an outpatient setting. Cetrorelix was started after a baseline observation period of 3-6 days. In the first two patients the starting dose was of 250 μg once a day, injected at about 8.30-9.00 h, just after the morning blood sampling. In the third patient the starting dose was 500 μg once a day. Blood was sampled only in the morning, between 8.00 en 9.00 h, every day during the first 4 days, thereafter every 3 days for a brief period, and later on once a week.

[4] = test system: serum LH, FSH, estradiol, SHBG and albumin; test: Short-term in-hospital response: serum LH, FSH, estradiol, SHBG and albumin
Description: as §1, with “h. LH, FSH and estradiol were measured by electrochemiluminescene immunoassays (Roche Diagnostics, Mannheim, Germany). Normal ranges in PMP women: LH>10 U/L, FSH>30 U/L, estradiol<100 nmol/L. SHBG was measured by chemilumiescent enzyme immunoassay (DPC, Los Angeles, Calif., USA, normal range in PMP women: 18-144 nmol/L)).” for “h.”

[5] = Patient 1, 250 μg once a day for five days
[6] = Patient 1, 250 μg once a day, within 24 hours
[7] = Patient 2, 250 μg once a day, 4th day of treatment
[8] = Patient 3, 250 μg once a day, after the first 5 days
[9] = Patient 1, discontinued after 4 months
[10] = Patient 1, outpatient, 250 μg once a day, after two weeks
[11] = Patient 1, outpatient, 250 μg once a day, if flushes occurred
[12] = Patient 2, outpatient, 250 μg once a day, over the following weeks
[13] = Patient 2, outpatient, 250 μg twice a day after the third month
[14] = Patient 2, outpatient, 250 μg twice a day, eventually
[15] = Patient 1, outpatient, 250 μg once a day
[16] = Patient 3, outpatient, 500 μg once a day at 20.00 h, first 4 weeks
[17] = Patient 3, 250 μg once a day at 08.30 h

With CC(=O)N[C@H](Cc1ccc2ccccc2c1)C(=O)N[C@H](Cc1ccc(Cl)cc1)C(=O)N[C@H](Cc1cccnc1)C(=O)N[C@@H](CO)C(=O)N[C@@H](Cc1ccc(O)cc1)C(=O)N[C@H](CCCNC(N)=O)C(=O)N[C@@H](CC(C)C)C(=O)N[C@@H](CCCNC(=N)N)C(=O)N1CCC[C@H]1C(=O)N[C@H](C)C(N)=O [Cetrorelix] (Ac-[d2Nal][dPhe(4-Cl)][d3Pal]SY[dCit]LRP[dA]-NH2) the Daytime flush duration [1, 5] was “did not change appreciably”, the Nighttime flush duration [1, 5] was “tended to decrease” and the Flush severity ([1]; Patient 1, 250 μg once a day for five days, in particular during daytime) was “weak trend to decrease”. For the same molecule, the “Decrease in daytime flush frequency” value [1, 6] was 60-70%, the “Decrease in nighttime flushing” value [1, 6] was 60-70% and the “Decrease in total flush frequency” value [1, 6] was 60-70%. For the same molecule, the “Time for flush frequency to rise again to pre-treatment levels after discontinuation” value ([1]; Patient 1, short-term) was at most 48 h, the Daytime flush duration ([1]; Patient 2, 250 μg once a day) was “tended to decrease slightly” and the Daytime flush severity ([1]; Patient 2, 250 μg once a day) was “did not change significantly”. The Flush sweating ([1]; Patient 2, 250 μg once a day) was “did not change significantly”, the “Change in daytime flush frequency” value [1, 7] was −80% and the Daytime flush frequency [1, 7] was 4 flushes per day. The Nighttime flushing ([1]; Patient 2, 250 μg once a day, after the first night) was “completely disappeared”, the “Change in nighttime flushing” value ([1]; Patient 2, 250 μg once a day, first night of treatment) was −80% and the Nighttime flushing ([1]; Patient 2, 250 μg once a day, first night of treatment, from 5) was 1. For the same molecule, the “Change in daytime flush frequency” value ([1]; Patient 2, 250 μg once a day, within one day) was −60%, the Daytime flush frequency ([1]; Patient 2, 250 μg once a day, within one day, from 20) was 8 and the “Flush frequency after discontinuation” value ([1]; Patient 2, within the two days after discontinuation) was “did not reach pre-treatment levels”. The “Change in daytime flushes” value [1, 8] was −25%, the “Change in total flushes” value [1, 8] was −25% and the Nighttime flushing [1, 8] was “did not change significantly”. The Nighttime flushing ([1]; Patient 3, 250 μg twice a day) was “started to decrease”, the “Decrease in total daily flush frequency” value ([1]; Patient 3, after 250 μg once then twice a day, one day after discontinuation) was 80% and the “Flush frequency after discontinuation” value ([1]; Patient 3, six days after discontinuation) was “still markedly lower than before treatment”. For the same molecule, the “Time after discontinuation at which flush frequency started to rise” value [2, 9] was 6 weeks, the Daytime flush frequency [2, 10] was “close to zero” and the Nighttime flush frequency [2, 10] was “close to zero”. The “Flush severity (scale of 0-10)” value ([2]; Patient 1, outpatient, 250 μg once a day, from about 8, day as well as night) was about 4, the Degree of perspiration [2, 11] was “unchanged” and the Flush duration [2, 11] was “unchanged”. For the same molecule, the Daytime flush duration [2, 12] was “gradually decreased”, the Daytime flush perspiration [2, 12] was “gradually decreased” and the Daytime flush severity [2, 12] was “gradually decreased”. The “Daytime flushing, level at which it levelled off” value ([2]; Patient 2, outpatient, 250 μg once a day, up to third month) was 10 flushes/day, the Daytime flush frequency ([2]; Patient 2, outpatient, 250 μg once a day, within the first week, from about 18) was about 8 flushes/day and the Nighttime flushing ([2]; Patient 2, outpatient, 250 μg once a day, within two days) was “disappeared completely”. For the same molecule, the Flushing [2, 13] was “further decreased”, the Total daily flushing [2, 14] was 6 flushes/day and the “Total decrease in total daily flushing” value [2, 14] was “about 75%”. For the same molecule, the “Decline of flush frequency” value ([2]; Patient 3, outpatient, 500 μg once a day, P<0.007) was 79.3%, the “Flush frequency (mean±standard error of the mean)” value ([2]; Patient 3, outpatient, 500 μg once a day, from 9.67±1.12, P<0.007) was 2.00±0.44 and the “Time for FSH levels to rise to pretreatment levels after discontinuation” value [3, 9] was at most 3 days. The “Time for LH levels to rise to pretreatment levels after discontinuation” value [3, 9] was at most 3 days, the “Serum FSH” value [3, 15] was “decreased to levels similar to those observed during the in-hospital setting” and the “Serum LH” value [3, 15] was “decreased to levels similar to those observed during the in-hospital setting”. For the same molecule, the FSH ([3]; Patient 2, outpatient, 250 μg once a day, stabilized level) was “around 15 U/L”, the “Serum LH” value ([3]; Patient 2, outpatient, 250 μg once a day, within a week) was “decreased to premenopausal levels” and the “Serum FSH level” value [3, 13] was “further decreased”. The “Serum LH level” value [3, 13] was “further decreased”, the “Serum FSH nadir” value [3, 16] was 25 U/L and the “Serum LH nadir” value [3, 16] was 8 U/L. The “Time at which FSH reached its nadir” value ([4]; Patient 1, 250 μg once a day) was 3 days, the “Serum SHBG level” value [4, 5] was “did not change” and the Serum albumin level [4, 5] was “did not change”. For the same molecule, the Serum estradiol level [4, 5] was “did not change”, the “Serum FSH” value ([4]; Patient 1, 250 μg once a day, in 3 days, from about 90) was about 60 U/L and the “Serum LH level” value ([4]; Patient 1, 250 μg once a day, within 12 hours, from about 22) was about 10 U/L. The “Time for serum FSH to rise again to pre-treatment levels after discontinuation” value ([4]; Patient 1, short-term) was at most 48 h, the “Time for serum LH to rise again to pre-treatment levels after discontinuation” value ([4]; Patient 1, short-term) was at most 48 h and the “Serum FSH level change” value ([4]; Patient 2, 250 μg once a day) was “gradual decrease”. The “Time at which FSH reached its nadir” value ([4]; Patient 2, 250 μg once a day) was 5 days, the “Serum LH change” value ([4]; Patient 2, 250 μg once a day, within 12 hours) was “abrupt decrease” and the “Time for LH to return to pre-treatment levels after discontinuation” value ([4]; Patient 2, short-term) was at most 48 h. For the same molecule, the FSH after discontinuation ([4]; Patient 2, short-term, compared with LH) was “rose somewhat more slowly”, the FSH change [4, 17] was “more gradually” and the LH change [4, 17] was “decreased abruptly”. For the same molecule, the “FSH after discontinuation of treatment” value ([4]; Patient 3, short-term) was “rose rapidly” and the “LH after discontinuation of treatment” value ([4]; Patient 3, short-term) was “rose rapidly”.
